Values quoted from earlier work as cited in US6258550A, “Polypeptides that include conformation-constraining groups which flank a protein-protein interaction site” (Virginia Commonwealth University, priority 1999, dated 2001).
Where a SMILES comes first, the peptide text is derived from it.

Test system: receptors of sweet tasting papillae
Details: comparison sweetener

Sweetness relative to sugar: 160 times sweeter than sugar
Structure (SMILES): COC(=O)[C@H](Cc1ccccc1)NC(=O)[C@@H](N)CC(=O)O [aspartame] (H-Asp-Phe-OMe)
